Reference: ChEMBL document CHEMBL1649270, “ST-246 inhibits in vivo poxvirus dissemination, virus shedding, and systemic disease manifestation” (2009)
Active and inactive are the calls of the source. The rule behind the calls is not given here.

Experiments:
[1] = test system: Vaccinia virus WR; test: Antiviral activity against Vaccinia virus WR ATCC VR-1354 infected through intravenous route in BALB/c mouse assessed as reduction of viral load in spleen at 100 mg/kg, po qd measured after 14 days postinfection by RT-PCR analysis relative to control; format: functional, organism-based; set-up: dose 100 mg/kg
[2] = test system: Vaccinia virus WR; test: Antiviral activity against Vaccinia virus WR ATCC VR-1354 infected through percutaneous route in BALB/c mouse assessed as inhibition of virus dissemination in liver at 100 mg/kg, po qd for 1 day by RT-PCR analysis; format: functional, organism-based; set-up: dose 100 mg/kg
[3] = test system: Vaccinia virus WR; test: Antiviral activity against Vaccinia virus WR ATCC VR-1354 infected through intraperitoneal route in BALB/c mouse assessed as reduction of viral load in blood at 100 mg/kg, po qd measured after 3 days postinfection by RT-PCR analysis relative to control; format: functional, organism-based; set-up: dose 100 mg/kg
[4] = test system: Vaccinia virus WR; test: Antiviral activity against Vaccinia virus WR ATCC VR-1354 infected through percutaneous route in BALB/c mouse assessed as reduction of viral load in spleen at 100 mg/kg, po qd measured after 3 days postinfection by RT-PCR analysis relative to control; format: functional
[5] = test system: Vaccinia virus WR; test: Antiviral activity against Vaccinia virus WR ATCC VR-1354 infected through intraperitoneal route in BALB/c mouse assessed as protection against virus-induced systemic disease symptoms at 100 mg/kg, po qd measured after 9 days postinfection; format: functional, organism-based; set-up: dose 100 mg/kg
[6] = test system: Vaccinia virus WR; test: Antiviral activity against Vaccinia virus WR ATCC VR-1354 infected through percutaneous route in BALB/c mouse assessed as protection against virus-induced satellite lesion formation on tails at 100 mg/kg, po qd measured after 6 days postinfection; format: functional, organism-based; set-up: dose 100 mg/kg
[7] = test system: Vaccinia virus WR; test: Antiviral activity against Vaccinia virus WR ATCC VR-1354 infected through percutaneous route in BALB/c mouse assessed as protection against virus-induced death at 100 mg/kg, po qd for 1 to 3 days; format: functional, organism-based; set-up: dose 100 mg/kg
[8] = test system: Vaccinia virus WR; test: Antiviral activity against Vaccinia virus WR ATCC VR-1354 infected through intraperitoneal route in BALB/c mouse assessed as reduction of viral load in spleen at 100 mg/kg, po qd measured after 3 days postinfection by RT-PCR analysis relative to control; format: functional, organism-based; set-up: dose 100 mg/kg
[9] = test system: Vaccinia virus WR; test: Antiviral activity against Vaccinia virus WR ATCC VR-1354 infected through subcutaneous route in BALB/c mouse assessed as protection against virus-induced conjunctivitis in mouse eyes at 100 mg/kg, po qd measured after 6 days postinfection; format: functional, organism-based; set-up: dose 100 mg/kg
[10] = test system: Vaccinia virus WR; test: Antiviral activity against Vaccinia virus WR ATCC VR-1354 infected through dermal scarification route in ACAM2000 vaccinated BALB/c mouse assessed as reduction of swab virus titers at 100 mg/kg, po qd measured after 7 days postinfection by RT-PCR analysis relative to control; format: functional
[11] = test system: Vaccinia virus WR; test: Antiviral activity against Vaccinia virus WR ATCC VR-1354 infected through percutaneous route in BALB/c mouse assessed as reduction of viral load in liver at 100 mg/kg, po qd measured after 13 days postinfection by RT-PCR analysis relative to control; format: functional, organism-based; set-up: dose 100 mg/kg
[12] = test system: Vaccinia virus WR; test: Antiviral activity against Vaccinia virus WR ATCC VR-1354 infected through percutaneous route in BALB/c mouse assessed as reduction of viral load in brain at 100 mg/kg, po qd measured after 5 days postinfection by RT-PCR analysis relative to control; format: functional
[13] = test system: Vaccinia virus WR; test: Antiviral activity against Vaccinia virus WR ATCC VR-1354 in african green monkey BSC-40 cells infected with 7 day postinfection BAL fluid from 100 mg/kg, po qd compound treated BALB/c mouse infected through percutaneous route assessed as reduction of viral attachment to cells by plaque titration assay; format: functional
[14] = test system: Vaccinia virus WR; test: Antiviral activity against Vaccinia virus WR ATCC VR-1354 infected through intraperitoneal route in BALB/c mouse assessed as reduction of viral load in liver at 100 mg/kg, po qd measured after 5 days postinfection by RT-PCR analysis relative to control; format: functional, organism-based; set-up: dose 100 mg/kg
[15] = test system: Vaccinia virus WR; test: Antiviral activity against Vaccinia virus WR ATCC VR-1354 infected through subcutaneous route in BALB/c mouse assessed as protection against virus-induced systemic disease symptoms at 100 mg/kg, po qd measured after 9 days postinfection; format: functional, organism-based; set-up: dose 100 mg/kg
[16] = test system: Vaccinia virus WR; test: Antiviral activity against Vaccinia virus WR ATCC VR-1354 infected through percutaneous route in BALB/c mouse assessed as protection against hypothermia at 100 mg/kg, po qd for 1 to 3 days measured on day 2; format: functional, organism-based; set-up: dose 100 mg/kg
[17] = test system: Vaccinia virus WR; test: Antiviral activity against Vaccinia virus WR ATCC VR-1354 infected through intravenous route in BALB/c mouse assessed as reduction of viral load in blood at 100 mg/kg, po qd measured after 14 days postinfection by RT-PCR analysis relative to control; format: functional, organism-based; set-up: dose 100 mg/kg
[18] = test system: Vaccinia virus WR; test: Antiviral activity against Vaccinia virus WR ATCC VR-1354 infected through percutaneous route in BALB/c mouse assessed as reduction of viral load in blood at 100 mg/kg, po qd measured after 13 days postinfection by RT-PCR analysis relative to control; format: functional, organism-based; set-up: dose 100 mg/kg
[19] = test system: Vaccinia virus WR; test: Antiviral activity against Vaccinia virus WR ATCC VR-1354 infected through dermal scarification route in BALB/c mouse assessed as reduction of viral load in spleen at 100 mg/kg, po qd measured after 5 days postinfection by RT-PCR analysis relative to control; format: functional
[20] = test system: Vaccinia virus WR; test: Antiviral activity against Vaccinia virus WR ATCC VR-1354 infected through dermal scarification route in BALB/c mouse assessed as reduction of viral load in blood at 100 mg/kg, po qd measured after 14 days postinfection by RT-PCR analysis relative to control; format: functional, organism-based; set-up: dose 100 mg/kg
[21] = test system: Vaccinia virus WR; test: Antiviral activity against Vaccinia virus WR ATCC VR-1354 infected through percutaneous route in BALB/c mouse assessed as reduction of viral load in blood at 100 mg/kg, po qd measured after 5 days postinfection by RT-PCR analysis relative to control; format: functional
[22] = test system: Vaccinia virus WR; test: Antiviral activity against Vaccinia virus WR ATCC VR-1354 infected through percutaneous route in BALB/c mouse assessed as reduction of viral load in liver at 100 mg/kg, po qd measured after 5 days postinfection by RT-PCR analysis relative to control; format: functional
[23] = test system: Vaccinia virus WR; test: Antiviral activity against Vaccinia virus WR ATCC VR-1354 infected through intravenous route in BALB/c mouse assessed as reduction of viral load in brain at 100 mg/kg, po qd measured after 3 days postinfection by RT-PCR analysis relative to control; format: functional
[24] = test system: Vaccinia virus WR; test: Antiviral activity against Vaccinia virus WR ATCC VR-1354 infected through dermal scarification route in BALB/c mouse assessed as reduction of viral load in blood at 100 mg/kg, po qd measured after 5 days postinfection by RT-PCR analysis relative to control; format: functional
[25] = test system: Vaccinia virus WR; test: Antiviral activity against Vaccinia virus WR ATCC VR-1354 infected through percutaneous route in BALB/c mouse assessed as protection against virus-induced systemic disease symptoms at 100 mg/kg, po qd measured after 6 days postinfection; format: functional, organism-based; set-up: dose 100 mg/kg
[26] = test system: Vaccinia virus WR; test: Antiviral activity against Vaccinia virus WR ATCC VR-1354 infected through intraperitoneal route in BALB/c mouse assessed as protection against virus-induced satellite lesion formation on tails at 100 mg/kg, po qd measured after 6 days postinfection; format: functional, organism-based; set-up: dose 100 mg/kg

Compound: O=C(NN1C(=O)[C@@H]2[C@@H]3C=C[C@@H]([C@H]4C[C@@H]34)[C@@H]2C1=O)c1ccc(C(F)(F)F)cc1 [TECOVIRIMAT]
- Activity [1]: Active
- Activity [2]: inactive
- Activity [3]: inactive
- fold change (FC) [4]: 300
- Activity [5]: Active
- Activity [6]: Active
- Activity [7]: inactive
- Activity [8]: inactive
- Activity [9]: Active
- fold change (FC) [10]: 53
- Activity [11]: Active
- fold change (FC) [12]: 13
- fold change (FC) [13]: 528
- Activity [14]: Active
- Activity [15]: Active
- Activity [16]: inactive
- Activity [17]: Active
- Activity [18]: Active
- fold change (FC) [19]: 16
- Activity [20]: Active
- fold change (FC) [21]: 90
- fold change (FC) [22]: 300
- fold change (FC) [23]: 23
- fold change (FC) [24]: 260
- Activity [25]: Active
- Activity [26]: Active
